Values quoted from earlier work, collected in patent US20070253995A1, “Drug Delivery Methods and Devices for Treating Stress Urinary Incontinence” (Medtronic, Inc., priority 2006, published 2007).

Tested on: women with stress urinary incontinence
Settings: oral formulation

CNCC[C@H](Oc1cccc2ccccc12)c1cccs1 [duloxetine]
time for side effects to disappear after therapy initiation: 1 to 4 weeks
efficacy in treating stress urinary incontinence (Phase III clinical trial, women): effective
side effects (mostly centrally mediated: nausea, headache, insomnia, dry mouth, dizziness, fatigue) (some patients): significant side effects in some patients
